Consider three compounds from publication PMC12951562, “SH2scan: Mapping SH2 Domain-Ligand Binding Selectivity for Inhibitors and Degraders” (Journal of Medicinal Chemistry, 2026).

Read-outs that look alike come from different tables or passages of the source. Non-standard residues stand in square brackets, D forms with d. Residues, ends and D or L forms follow the SMILES beside them. *: point of attachment. pY = N[C@@H](Cc1ccc(OP(=O)(O)O)cc1)C(=O)O; Caffeoyl = O=C(/C=C/c1ccc(O)c(O)c1)*

Assay in all cases: biochemical
What all share (type): binding

In test [1] the target is T1, SHC2 (Homo sapiens, UniProt P98077).
T1 construct: made in house; host or cells: HEK293 (transient transfection), unpurified extract
T1 sequence (P98077 1-582): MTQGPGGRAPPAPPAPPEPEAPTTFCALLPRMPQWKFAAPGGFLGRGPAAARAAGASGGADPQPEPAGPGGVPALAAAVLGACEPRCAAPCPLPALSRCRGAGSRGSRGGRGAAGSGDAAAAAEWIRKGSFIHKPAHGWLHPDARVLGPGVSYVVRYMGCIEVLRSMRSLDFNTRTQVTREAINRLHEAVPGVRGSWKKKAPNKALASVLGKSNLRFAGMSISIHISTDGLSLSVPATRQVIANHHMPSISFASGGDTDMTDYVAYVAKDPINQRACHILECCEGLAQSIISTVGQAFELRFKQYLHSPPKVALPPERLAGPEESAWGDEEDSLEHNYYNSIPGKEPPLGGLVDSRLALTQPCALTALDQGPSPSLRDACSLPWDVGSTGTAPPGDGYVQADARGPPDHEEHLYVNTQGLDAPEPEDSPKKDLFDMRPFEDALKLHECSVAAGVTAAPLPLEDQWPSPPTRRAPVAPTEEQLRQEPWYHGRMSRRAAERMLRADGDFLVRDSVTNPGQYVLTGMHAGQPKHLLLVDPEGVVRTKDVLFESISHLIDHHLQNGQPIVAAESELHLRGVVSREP
The settings on record: for remaining activity at 10 µM: read-out: percent of DMSO vehicle control.

Test [2] deals with T2, LYN (Homo sapiens, UniProt P07948).
T2 construct: the DNA-tagged SH2 domain concentrations used in this study were <0.1 nM; made in house; host or cells: HEK293 (transient transfection, unpurified extract)
T2 sequence (P07948 129-226 limits assumed): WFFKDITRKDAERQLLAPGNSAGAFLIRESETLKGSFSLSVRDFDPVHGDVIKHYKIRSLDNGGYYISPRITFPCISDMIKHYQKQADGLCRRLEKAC
The following applies: for remaining activity at 10 µM: read-out: percent of DMSO vehicle control.

In test [3] the target is T3, PLCG1(SH2dom.C-term.) (Homo sapiens, UniProt P19174).
T3 construct: SH2dom.C-term. denotes SH2 domain closest to C-terminus of protein; made in house; host or cells: HEK293 (transient transfection, unpurified extract)
T3 sequence (P19174 668-756 limits assumed): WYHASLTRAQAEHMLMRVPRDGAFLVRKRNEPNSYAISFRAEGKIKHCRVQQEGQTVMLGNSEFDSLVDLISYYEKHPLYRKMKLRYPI
The settings on record: for remaining activity at 10 µM: read-out: percent of DMSO vehicle control.

Test [4] addresses T4, NCK1 (Homo sapiens, UniProt P16333).
T4 construct: the DNA-tagged SH2 domain concentrations used in this study were <0.1 nM; made in house; host or cells: HEK293 (transient transfection, unpurified extract)
The settings on record: for remaining activity at 10 µM: read-out: percent of DMSO vehicle control.

In test [5] the target is T5, DAPP1 (Homo sapiens, UniProt Q9UN19).
T5 construct: the DNA-tagged SH2 domain concentrations used in this study were <0.1 nM; made in house; host or cells: HEK293 (transient transfection; unpurified extract)
T5 sequence (Q9UN19 35-129 limits assumed): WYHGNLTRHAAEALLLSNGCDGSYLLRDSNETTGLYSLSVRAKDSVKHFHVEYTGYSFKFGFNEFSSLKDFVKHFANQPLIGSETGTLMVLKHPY
The following applies: read-out: percent of DMSO vehicle control.

For test [6], the target named is T6, PLCG2(SH2dom.C-term.) (Homo sapiens, UniProt P16885).
T6 construct: SH2dom.C-term. denotes SH2 domain closest to C-terminus of protein; made in house; host or cells: HEK293 (transient transfection, unpurified extract)
T6 sequence (P16885 646-735 limits assumed): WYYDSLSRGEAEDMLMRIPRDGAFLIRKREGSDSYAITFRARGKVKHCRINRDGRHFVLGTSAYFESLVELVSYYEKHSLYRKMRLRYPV
The settings on record: for remaining activity at 10 µM: read-out: percent of DMSO vehicle control.

Test [7] has as its target T7, SH3BP2 (Homo sapiens, UniProt P78314).
T7 construct: made in house; host or cells: HEK293 (transient transfection), unpurified extract
T7 sequence (P78314 1-561): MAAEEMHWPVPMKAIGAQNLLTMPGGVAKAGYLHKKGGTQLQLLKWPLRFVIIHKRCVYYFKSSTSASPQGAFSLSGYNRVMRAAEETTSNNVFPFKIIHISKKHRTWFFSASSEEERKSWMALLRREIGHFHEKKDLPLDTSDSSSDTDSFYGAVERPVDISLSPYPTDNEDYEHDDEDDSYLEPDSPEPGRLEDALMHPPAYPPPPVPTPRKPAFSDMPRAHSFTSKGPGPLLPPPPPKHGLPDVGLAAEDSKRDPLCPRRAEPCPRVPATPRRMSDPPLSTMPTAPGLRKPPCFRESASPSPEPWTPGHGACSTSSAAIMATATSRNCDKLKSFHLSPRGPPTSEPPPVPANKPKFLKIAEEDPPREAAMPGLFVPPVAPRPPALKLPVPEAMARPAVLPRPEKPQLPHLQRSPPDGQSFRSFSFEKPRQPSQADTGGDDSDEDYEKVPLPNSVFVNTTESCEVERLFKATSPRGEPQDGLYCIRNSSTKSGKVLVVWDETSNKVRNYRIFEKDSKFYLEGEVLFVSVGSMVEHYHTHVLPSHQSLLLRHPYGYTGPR
The following applies: for remaining activity at 10 µM: read-out: percent of DMSO vehicle control.

Test [8] addresses T8, FRK (Homo sapiens, UniProt P42685).
T8 construct: the DNA-tagged SH2 domain concentrations used in this study were <0.1 nM; made in house; host or cells: HEK293 (transient transfection; unpurified extract)

Test [9] concerns the target T9, SOCS2 (Homo sapiens, UniProt O14508).
T9 construct: made in house; host or cells: HEK293 (transient transfection), unpurified extract
T9 sequence (O14508 1-198): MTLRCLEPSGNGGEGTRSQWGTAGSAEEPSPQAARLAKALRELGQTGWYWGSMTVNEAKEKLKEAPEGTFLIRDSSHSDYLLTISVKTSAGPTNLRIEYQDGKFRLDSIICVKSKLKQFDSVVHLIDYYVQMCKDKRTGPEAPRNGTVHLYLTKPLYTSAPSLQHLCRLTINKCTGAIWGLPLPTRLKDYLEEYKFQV
The settings on record: for remaining activity at 10 µM: read-out: percent of DMSO vehicle control.

For test [10], the target named is T10, PIK3R3(SH2dom.C-term.) (Homo sapiens, UniProt Q92569).
T10 construct: SH2dom.C-term. denotes SH2 domain closest to C-terminus of protein; made in house; host or cells: HEK293 (transient transfection, unpurified extract)
The following applies: for remaining activity at 10 µM: read-out: percent of DMSO vehicle control.

For test [11], the target named is T11, GRB7 (Homo sapiens, UniProt Q14451).
T11 construct: the DNA-tagged SH2 domain concentrations used in this study were <0.1 nM; made in house; host or cells: HEK293 (transient transfection; unpurified extract)
T11 sequence (Q14451 431-527 limits assumed): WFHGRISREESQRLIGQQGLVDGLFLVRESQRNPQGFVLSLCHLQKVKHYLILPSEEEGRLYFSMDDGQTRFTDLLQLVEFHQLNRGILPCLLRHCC

Test [12] concerns the target T12, LNK (SH2B3) (Homo sapiens, UniProt Q9UQQ2).
T12 construct: the DNA-tagged SH2 domain concentrations used in this study were <0.1 nM; made in house; host or cells: HEK293 (transient transfection, unpurified extract)
The settings on record: for remaining activity at 10 µM: read-out: percent of DMSO vehicle control.

Test [13] addresses T13, CRK (Homo sapiens, UniProt P46108).
T13 construct: the DNA-tagged SH2 domain concentrations used in this study were <0.1 nM; made in house; host or cells: HEK293 (transient transfection; unpurified extract)

Test [14] deals with T14, CBLC (Homo sapiens, UniProt Q9ULV8).
T14 construct: the DNA-tagged SH2 domain concentrations used in this study were <0.1 nM; made in house; host or cells: HEK293 (transient transfection; unpurified extract)
T14 sequence (Q9ULV8 219-321 limits assumed): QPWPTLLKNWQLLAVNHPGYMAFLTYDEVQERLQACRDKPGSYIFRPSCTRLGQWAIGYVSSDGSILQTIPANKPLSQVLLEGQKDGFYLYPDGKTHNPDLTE

The mark [15] stands for this setting: read-out: percent of DMSO vehicle control.
Where [16] appears, read: primary screen, 10 μM, read-out: percent of DMSO vehicle control.

T8 sequence (P42685 116-208 limits assumed): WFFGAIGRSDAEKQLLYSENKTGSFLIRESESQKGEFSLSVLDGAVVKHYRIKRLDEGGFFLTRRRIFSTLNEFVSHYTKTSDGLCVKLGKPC
T13 sequence (P46108 13-118 limits assumed): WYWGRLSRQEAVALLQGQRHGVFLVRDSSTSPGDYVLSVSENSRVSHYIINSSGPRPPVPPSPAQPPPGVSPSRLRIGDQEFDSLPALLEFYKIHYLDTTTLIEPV
T12 sequence (Q9UQQ2 364-462 limits assumed): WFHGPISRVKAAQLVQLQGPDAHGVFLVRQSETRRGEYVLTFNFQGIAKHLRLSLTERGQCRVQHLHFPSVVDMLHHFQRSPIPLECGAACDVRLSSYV

For orientation: Kd means the concentration at which binding is half-saturated. With `CC[C@H](C)[C@H](NC(=O)[C@H](CCC(=O)O)NC(=O)[C@H](CCC(=O)O)NC(=O)[C@H](Cc1ccc(OP(=O)(O)O)cc1)NC(=O)/C=C/c1ccc(O)c(O)c1)C(=O)N[C@@H](CCC(=O)O)C(=O)O` [Caffeic acid-pYEEIE] (Caffeoyl-[pY]EEIE-OH), the Kd in test [1] stood at 580 ± 330 nM; in test [2], 1 ± 0.34 nM; in test [3] it was 14 ± 11 nM; in test [4] it was 97 ± 71 nM; in [6], 660 ± 700 nM; in [7], 1020 ± 600 nM. Moreover, the dissociation constant (Kd) in test [8] is 2.2 ± 0.47 nM; in test [9], 1300 ± 880 nM; in [10] it was 230 ± 180 nM; in [11], 6100 ± 320 nM; in test [12] it was 500 ± 410 nM; in test [13], 2300 ± 670 nM. The same compound had a Kd in test [14] of 37 ± 23 nM. Moreover, the remaining activity at 10 µM in test [1] is 0.3 ± 0.1%; in test [2], 0%; in test [3], 0%; in test [4], 0.8 ± 0.1%; in test [6], 1.1 ± 0.1%; in test [7], 0.9 ± 0.3%. The figures for the remaining activity at 10 µM in [9], in [10] and in [12] were 2.6 ± 0.1%, 0.8 ± 0.1% and 0.4 ± 0.1%, respectively. In addition, the percent of DMSO vehicle control at 10 µM in [5] stood at 39.2 ± 3.2%; in test [8] (setting [15]), 0.1 ± 0.1%; in test [11] (setting [15]), 0.2 ± 0.1%; in [13] (setting [15]), 3.1 ± 2.8%; in [14] (setting [15]), 0.1%.

On to `O=C(CCl)Nc1cccc(CNC(=O)[C@H](Cc2ccc(OP(=O)(O)O)cc2)NC(=O)Cc2ccc(F)cc2)c1` [MN551], for which the remaining activity at 10 µM in test [1] (primary screen, 10 μM) was determined as 82.9 ± 1.7%; in test [2] (primary screen, 10 μM), 161%; in test [3] (primary screen, 10 μM) it was 64.1 ± 4.5%; in test [4] (primary screen, 10 μM), 67.4 ± 5.3%; in test [5] (primary screen, 10 μM), 81.2%; in test [6] (primary screen, 10 μM), 133%. For the same compound, the remaining activity at 10 µM is 109% in test [7] (primary screen, 10 μM); 69 ± 8.3% in test [8] (setting [16]); 0% in [9] (primary screen, 10 μM); 27.3 ± 3.8% in test [10] (primary screen, 10 μM); 71.3 ± 3.5% in test [11] (setting [16]); 17.7 ± 5.5% in [12] (primary screen, 10 μM). For the same compound, the remaining activity at 10 µM stood at 72.1 ± 0.5% in test [13] (setting [16]) and 43 ± 3.8% in test [14] (setting [16]). Moreover, the dissociation constant Kd came out at 400 nM in [9] (dose-response, read-out: KD); 4400 nM in [10] (dose-response, read-out: KD); 3900 ± 710 nM in test [12] (dose-response, read-out: KD).

With `NC(=O)CC[C@H](NC(=O)[C@@H]1CC[C@@H]2CCN(C(=O)CCCCCC#Cc3cccc4c3CN(C3CCC(=O)NC3=O)C4=O)C[C@H](NC(=O)c3cc4cc(C(F)(F)P(=O)(O)O)ccc4[nH]3)C(=O)N21)C(=O)NC(c1ccccc1)c1ccccc1` (stereo partly shown) [SD-36], the remaining activity at 10 µM in test [1] amounted to 94.9 ± 2.3%; in test [2], 90.9 ± 2.3%; in test [3], 85.7 ± 0.8%; in test [4], 106%; in test [6], 86.3 ± 12.4%; in [7], 91.5 ± 19.4%. Also, the remaining activity at 10 µM was 98.5 ± 5.4% in [9], 57.8 ± 6.8% in test [10] and 86.6% in test [12]. For the same compound, the percent of DMSO vehicle control at 10 µM in [5] came out at 126%; in test [8] (setting [15]), 155 ± 4.5%; in test [11] (setting [15]) it was 66.9 ± 4.6%; in test [13] (setting [15]), 77 ± 13.9%; in test [14] (setting [15]), 113 ± 4.5%.
